We go through six compounds from article PMC6862323, “Substitution of Arginine 120 in Human D-Amino Acid Oxidase Favors FAD-Binding and Nuclear Mistargeting” (Frontiers in Molecular Biosciences, 2019).

Where two headings read alike, the source gives them in different places.

Data set [1] has as its system wild-type hDAAO. More on the design: method as in Molla et al. (2006) and Murtas et al. (2017). The conditions noted are these: air saturation, 25°C, pH 8.5, ref Molla et al. (2006) and Murtas et al. (2017), cited from earlier work; for Km: read-out: apparent Km.
For data set [2], the target named is T1, R120E hDAAO variant (Homo sapiens, UniProt P14920, R120E).
T1 construct: His-tag (N); made in house; host or cells: E. coli BL21 (DE3) Star
T1 sequence (P14920 whole entry R120E): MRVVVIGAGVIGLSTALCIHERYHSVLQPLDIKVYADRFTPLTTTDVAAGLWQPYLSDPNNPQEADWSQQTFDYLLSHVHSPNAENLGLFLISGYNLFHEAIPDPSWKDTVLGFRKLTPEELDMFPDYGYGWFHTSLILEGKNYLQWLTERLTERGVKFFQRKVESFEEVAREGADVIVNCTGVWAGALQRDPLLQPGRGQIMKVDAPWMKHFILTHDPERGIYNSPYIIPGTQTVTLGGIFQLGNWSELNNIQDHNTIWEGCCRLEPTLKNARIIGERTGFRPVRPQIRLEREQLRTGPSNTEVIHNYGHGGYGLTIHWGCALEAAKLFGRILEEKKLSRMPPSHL
The data set can be described thus: Apparent kinetic parameters on D-amino acids (oxygen electrode), R120E hDAAO. It is filed as biochemical. The conditions noted are these: air saturation, 25°C, pH 8.5, 0.2 mM FAD. The protocol:
(§1) The kinetic parameters were determined on different D-amino acids, employing increasing substrate concentrations (Molla et al., [2000], [2006]). The apparent kinetic parameters were calculated using the initial reaction rate according to a Michaelis–Menten equation using the Kaleidagraph software (Synergy Software, Reading, PA, USA).
(§2) The apparent kinetic parameters were calculated according to a Michaelis–Menten equation using the initial velocity values determined at increasing D-amino acid concentrations and a fixed O2 concentration (air saturation) at pH 8.5 and 25°C, in the presence of 0.2 mM FAD to avoid apoprotein formation for wild-type hDAAO.

Data set [3] addresses T2, R120L hDAAO variant (Homo sapiens, UniProt P14920, R120L).
T2 construct: His-tag (N); made in house; host or cells: E. coli BL21 (DE3) Star
The data set can be described thus: Apparent kinetic parameters on D-amino acids (oxygen electrode), R120L hDAAO. It is filed as biochemical. The conditions noted are these: air saturation, 25°C, pH 8.5, 0.2 mM FAD. The protocol:
as §1, §2

Data set [4] is described as follows: Standard DAAO activity assay of purified hDAAO variants (oxygen electrode, 28 mM D-alanine). It is filed as biochemical. The conditions noted are these: pH 8.5, 25°C.
Another data set has as its system U87 glioblastoma cells. The data set can be described thus: Confocal analysis of cellular distribution of EYFP-hDAAO variants in transiently transfected U87 cells. Type of data set: cell-based, human. The protocol: Human U87 glioblastoma cells (ATCC) were cultured in DMEM supplemented with 10% fetal bovine serum, 1 mM sodium pyruvate, 2 mM L-glutamine, 1% non-essential amino acids, 1% penicillin/streptomycin, and 1% amphotericin B (Euroclone), at 37°C in 5% CO2. The cells were transfected either with the pEYFP-hDAAO-C3 construct (for the expression of the wild-type enzyme downstream of the enhanced yellow fluorescent protein, EYFP) (Sacchi et al., [2008], [2011]), the pEYFP-hDAAO(R120L)-C3, or the pEYFP-hDAAO(R120E)-C3 expression vectors. The latter constructs were obtained by mutagenesis using the QuikChange Lightning Site-Directed Mutagenesis Kit (Agilent), and the following primers: 5′-[…]-3′ and 5′-[…]-3′ for the R120E substitution, and 5-[…]-3′ and 5′-[…]-3′ for the R120L substitution.
For transient transfection, 2 ×10^4 cells were seeded into eight-well chamber slides (Sarstedt). At 24 h after seeding, cells were transfected with 2 μg plasmid DNA using a 4:1 ratio of FuGENE transfection reagent (Promega) to DNA. Then, 12.5 μL of transfection mix was added to 500 μL medium per well. Protein expression levels were monitored by using a fluorescence microscope (Olympus IX51) equipped with a FITC filter and by Western blot analysis using an anti-hDAAO antibody (Davids Biotechnologie) (Sacchi et al., [2008], [2011]).
At 24, 48, and 72 h after transfection, cells were washed twice with PBS and fixed with ice-cold 4% p-formaldehyde and 4% sucrose for 10 min at room temperature. After fixation, cells were washed twice with PBS and blocked by incubation in PBS supplemented with 0.2% Triton X-100 and 4% horse serum for 30 min at room temperature. Peroxisomes were stained using rabbit polyclonal anti-PMP70 (peroxisomal membrane protein 70, Sigma), diluted 1:500 in PBS, 0.1% Triton X-100, and 4% horse serum overnight at 4°C; they were then washed twice in PBS and 1% horse serum and incubated for 1 h at room temperature (light protected) with goat anti-rabbit Dylight 550 secondary antibodies (Abcam) diluted 1:400 in PBS, 0.1% Triton X-100, and 1.5% horse serum. Cells were then extensively washed in PBS and nuclei were stained with DRAQ5™ (Thermo Scientific) and diluted 1:500 in PBS for 10 min at room temperature in the dark. Cells were washed three times with PBS and stored in PBS at 4°C until imaging.
Immunostained cells were imaged using an inverted laser scanning confocal microscope (TCS SP5, Leica Microsystems), equipped with a 63.0 ×1.25 NA plan apochromatic oil immersion objective. Confocal image stacks were acquired using the Leica TCS software with a sequential mode to avoid interference between each channel and without saturating any pixel. Cells in 10–15 non-magnified optical fields were analyzed for each condition (i.e., different EYFP-hDAAO expression constructs at different times after transfection). The fluorescence signal corresponding to the overexpressed EYFP-hDAAO variants was monitored by excitation at 514 nm (yellow channel); the peroxisomal and nuclear cellular compartments were imaged by excitation at 546 nm (red channel) and 647 nm (blue channel), respectively.
U87 glioblastoma cells were transiently transfected with a pEYFP-hDAAO-C3 plasmid encoding for EYFP-hDAAO chimeric proteins harboring R, E, or L at position 120 of the flavoenzyme. […] A similar amount of transfected cells (expressing EYFP-hDAAO protein) was obtained for all three constructs (Table 4). The percentage of cells showing a cytosolic, peroxisomal, and nuclear localization of the flavoenzyme was determined by comparing the yellow fluorescence signal of EYFP-hDAAO variants with those of the markers PMP-70 (for peroxisomes) and DRAQ5™ dye (for nuclei, Figure 5). The amount of cytosolic wild-type EYFP-hDAAO decreased with time after transfection (28% of the signal is cytosolic at 72 h vs. 94% at 24 h), as did the amount of nuclear signal (Table 4 and Figure 6). […]

Data set [5] deals with T2, R120L hDAAO variant. The data set can be described thus: FAD and ligand binding by quenching of protein fluorescence, R120L hDAAO. How it is done:
(§3) Protein fluorescence spectra were recorded between 300 and 400 nm, with excitation at 280 nm using a Jasco FP-750 instrument (excitation slit of 10 nm; emission slit of 5 nm) in 10 mM potassium phosphate, pH 8.0, 1% (v/v) glycerol, 5 mM 2-mercaptoethanol, […]

For data set [6], the target named is wild-type hDAAO. The conditions noted are these: cited from earlier work.
The target in data set [7] is T1, R120E hDAAO variant. The data set can be described thus: FAD and ligand binding by quenching of protein fluorescence, R120E hDAAO. The protocol: as §3
The mark [8] stands for this setting: read-out: Benzoate Kd, first saturation phase.
[9] abbreviates: read-out: Benzoate Kd, second saturation phase.

T2 sequence (P14920 whole entry R120L): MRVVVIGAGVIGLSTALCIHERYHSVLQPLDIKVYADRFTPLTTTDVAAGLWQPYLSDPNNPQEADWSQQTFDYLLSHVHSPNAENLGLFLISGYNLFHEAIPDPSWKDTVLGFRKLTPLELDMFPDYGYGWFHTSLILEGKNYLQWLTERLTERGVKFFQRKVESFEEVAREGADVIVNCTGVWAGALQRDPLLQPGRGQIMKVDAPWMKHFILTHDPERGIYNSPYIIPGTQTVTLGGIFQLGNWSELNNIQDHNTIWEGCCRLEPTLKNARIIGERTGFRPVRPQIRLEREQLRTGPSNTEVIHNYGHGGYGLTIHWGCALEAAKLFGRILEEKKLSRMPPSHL

As to `N[C@H](CS)C(=O)O` [D-Cys, D-cysteine], the results for the apparent kcat in the data set on wild-type hDAAO [1], at R120E hDAAO variant [2] and on R120L hDAAO variant [3] were 8.6 ± 0.2 s⁻¹, 9.9 ± 0.5 s⁻¹ and 15.6 ± 0.7 s⁻¹, respectively. Also, the Km (commonly the substrate concentration at which the rate is half of its maximum) in the data set on wild-type hDAAO [1] was 600 ± 100 µM; on R120E hDAAO variant [2] it was 600 ± 100 µM; at R120L hDAAO variant [3], 700 ± 100 µM.

As for “R120E: hDAAO variant with Arg120 substituted by glutamate (His-tagged from E. coli; EYFP-tagged in U87 cells)”, in data set [4], the Specific activity was 21.0 U/mg protein. In the data set on U87 glioblastoma cells (24 h after transfection), the “hDAAO cellular distribution: A, large cytosolic aggregates detected” value was 29.7 % of transfected cells; the “hDAAO cellular distribution: C, cytosol” value is 86.7 % of transfected cells; the “hDAAO cellular distribution: C/P, mixed, cytosol and peroxisomes” value (from here on “hDAAO cellular distribution: C/P, mixed”) was 7.8 % of transfected cells; the “hDAAO cellular distribution: N, nucleus” value is on record as 36.7 % of transfected cells. Also, in the data set with U87 glioblastoma cells (24 h after transfection), the “hDAAO cellular distribution: P, peroxisomes” value (“hDAAO cellular distribution: P” below) is on record as 6.3 % of transfected cells. Also, in the data set with U87 glioblastoma cells (48 h after transfection), the “hDAAO cellular distribution: A, large cytosolic aggregates detected” value is reported as 31.3 % of transfected cells; the “hDAAO cellular distribution: C, cytosol” value is 56.7 % of transfected cells; the “hDAAO cellular distribution: C/P, mixed” value is reported as 14.9 % of transfected cells; the “hDAAO cellular distribution: N, nucleus” value was 27.6 % of transfected cells. In addition, the “hDAAO cellular distribution: P” value in the data set on U87 glioblastoma cells (48 h after transfection) is on record as 28.4 % of transfected cells. Besides, in the data set with U87 glioblastoma cells (72 h after transfection), the “hDAAO cellular distribution: A, large cytosolic aggregates detected” value is recorded as 18.2 % of transfected cells; the “hDAAO cellular distribution: C, cytosol” value was 40.3 % of transfected cells; the “hDAAO cellular distribution: C/P, mixed” value is given as 18.2 % of transfected cells; the “hDAAO cellular distribution: N, nucleus” value is listed as 24.0 % of transfected cells. The “hDAAO cellular distribution: P” value in the data set on U87 glioblastoma cells (72 h after transfection) is reported as 41.6 % of transfected cells.

`O=C(O)c1ccccc1` [Benzoate, benzoate]: the Kd on R120L hDAAO variant [5] (setting [8]) was 0.00027 ± 0.00012 mM; at R120L hDAAO variant [5] (setting [9]), 6.21 mM; on wild-type hDAAO [6] (ref Murtas et al. (2017), read-out: Benzoate Kd, first saturation phase) it was 0.00033 ± 4e-05 mM; at wild-type hDAAO [6] (ref Murtas et al. (2017), read-out: Benzoate Kd, second saturation phase), 2.59 mM; on wild-type hDAAO [6] (ref Murtas et al., 2017, read-out: Kd for the second phase of binding) it was 2.6 mM; at R120E hDAAO variant [7] (setting [8]) it was 0.00016 ± 1e-05 mM. The results for the Kd on R120E hDAAO variant [7] (setting [9]) and at R120E hDAAO variant [7] (read-out: Kd for the second phase of binding) were 7.98 mM and roughly 8 mM, respectively.

Take `C[C@@H](N)C(=O)O` [D-Ala, D-alanine]: in the data set with wild-type hDAAO [1], the apparent kcat was 5.2 ± 0.1 s⁻¹ and the Michaelis constant (Km) was 1300 ± 200 µM.

On to `N[C@H](CO)C(=O)O` [D-Ser, D-serine], for which the figures for the apparent kcat with wild-type hDAAO [1], at R120E hDAAO variant [2] and at R120L hDAAO variant [3] were 3.0 ± 0.1 s⁻¹, 8.5 ± 0.4 s⁻¹ and 11.3 ± 0.4 s⁻¹, respectively. The figures for the Michaelis constant (Km) in the data set with wild-type hDAAO [1], at R120E hDAAO variant [2] and on R120L hDAAO variant [3] were 7500 ± 500 µM, 17600 ± 3500 µM and 26700 ± 4500 µM, respectively.

As to “R120L: hDAAO variant with Arg120 substituted by leucine (His-tagged from E. coli; EYFP-tagged in U87 cells)”, the Specific activity in data set [4] was 17.6 U/mg protein. For the same compound, in the data set on U87 glioblastoma cells (24 h after transfection), the “hDAAO cellular distribution: A, large cytosolic aggregates detected” value was 41.5 % of transfected cells; the “hDAAO cellular distribution: C, cytosol” value is 93.1 % of transfected cells; the “hDAAO cellular distribution: C/P, mixed” value is given as 3.8 % of transfected cells; the “hDAAO cellular distribution: N, nucleus” value is given as 20.8 % of transfected cells. In the data set on U87 glioblastoma cells (24 h after transfection), the “hDAAO cellular distribution: P” value is 3.1 % of transfected cells. For the same compound, in the data set on U87 glioblastoma cells (48 h after transfection), the “hDAAO cellular distribution: A, large cytosolic aggregates detected” value was 22.6 % of transfected cells; the “hDAAO cellular distribution: C, cytosol” value was 59.7 % of transfected cells; the “hDAAO cellular distribution: C/P, mixed” value was 21.0 % of transfected cells; the “hDAAO cellular distribution: N, nucleus” value is on record as 20.2 % of transfected cells. In addition, the “hDAAO cellular distribution: P” value with U87 glioblastoma cells (48 h after transfection) was 19.4 % of transfected cells. In the data set on U87 glioblastoma cells (72 h after transfection), the “hDAAO cellular distribution: A, large cytosolic aggregates detected” value was 35.6 % of transfected cells; the “hDAAO cellular distribution: C, cytosol” value is 45.5 % of transfected cells; the “hDAAO cellular distribution: C/P, mixed” value is listed as 21.2 % of transfected cells; the “hDAAO cellular distribution: N, nucleus” value is given as 13.1 % of transfected cells. In addition, in the data set with U87 glioblastoma cells (72 h after transfection), the “hDAAO cellular distribution: P” value was 34.3 % of transfected cells.
